# Experimental data: article PMC6789647, “α-Glucosidase Inhibitory Activity of Cycloartane-Type Triterpenes Isolated from Indonesian Stingless Bee Propolis and Their Structure–Activity Relationship” (Pharmaceuticals, 2019)
# Legend:
# α-glucosidase [1] = target: α-glucosidase (Saccharomyces cerevisiae, UniProt P53341); experiment: Determination of inhibitory type by kinetic analysis (Lineweaver–Burk, Dixon plots); type: biochemical; conditions: for Inhibition Mode: Lineweaver–Burk plot, inhibitor 0, 0.2, 2 µg/mL, p-NPG substrate; for Ki’: mixed inhibition, affinity for enzyme–substrate
# Method: Inhibitory mechanisms of isolated triterpenes against α-glucosidase at some concentrations (0, 0.2, and 2 µg/mL) were analyzed by the Lineweaver–Burk plot (Figure 2 and Figure 3).
# The inhibition activity of isolated triterpenes against α-glucosidase was measured with different concentrations (0, 1, 2.5, 5, and 10 mM) of p-NPG as a substrate in the presence or absence of different concentrations (0, 0.2, and 2 µg/mL) of the compounds. The mode of inhibition was then determined by Lineweaver–Burk plot analysis, which was calculated using Michaelis–Menten kinetics. Inhibition constants (Ki) were determined by analysis of Dixon plots and plots of the Y-intercept of the Lineweaver–Burk plot versus the inhibitor [44, 49]. All data are expressed as means ± standard errors of triplicate determinations.
# [2] = DPPH free radical scavenging activity; conditions: means ± SEs, n = 3; for DPPH IC50 / IC50: isolated compounds
# Method: The antioxidative activities of the fractions were assayed for the scavenging of 2,2-diphenyl-1-picrylhydrazyl (DPPH) (Sigma-Aldrich, Darmstadt, Germany). Free radicals were assayed using a previously reported method [48] with some modifications. The fractions of EEP, isolated compounds and Trolox (Sigma-Aldrich, Darmstadt, Germany) were dissolved in methanol to make a 50 ppm solution. Each of the test sample solutions (0, 20, 40, 60, 80, and 100 µL) were added into a mixture (0.9 mL) of 0.4 mM DPPH solution, 20% methanol aqueous solution, and 0.2 M MES (2-(N-morpholino) ethanesulfonic acid) (Dojindo, Wako Junyaku Kogyo Co., Ltd., Osaka, Japan) buffer solution (1:1:1). The resulting mixtures were shaken on a vortex mixer and allowed to stand for 20 min. The absorbance of the remaining DPPH was measured with a microplate reader (Biotech, Tokyo, Japan) at 520 nm. […] The inhibitory concentration that results in 50% scavenging of DPPH radicals (IC50) was estimated based on the plot of inhibition versus the final concentration of the propolis samples. The results are expressed in µg Trolox Equivalents (TE) per mL.
# [3] = tested on: α-glucosidase from the rat small intestine; experiment: Inhibitory activity assay for rat intestinal α-glucosidase; type: biochemical; conditions: for IC50: rat small intestine α-glucosidase, means ± SEs, n = 3, ND: not detected, isolated compounds tested at 0.1–10 µg/mL
# Method: In a centrifuge tube at 4 °C, 200 mg of rat intestine acetone granules (Sigma-Aldrich, Tokyo, Japan) was placed in 8 mL of physiological saline (0.9 g of NaCl was dissolved in 100 mL pure water). The resulting suspension was homogenized with sonication equipment (Branson, Danbury, CT, USA) for 60 s (ultrasonic treatment cycles: 50, output control: 5) in an ice bath. The resulting homogenate was centrifuged (14,400× g, −21 °C for 20 min) with a high-speed refrigerated centrifuge (Himac CR21N, Hitachi Koki Co, Ltd., Tokyo, Japan). The resulting supernatant was used as an enzyme preparation, and stored at −30 °C until use. Then the measurement of inhibitory activity of isolated compounds against α-glucosidase from the rat small intestine followed the method used to measure the activity of yeast enzymes (S. cerevisiae). The concentration of the isolated compounds used is 0.1–10 µg/mL (0.2–23 µM).
# [4] = target: α-glucosidase from Saccharomyces cerevisiae (Saccharomyces cerevisiae, UniProt P53341); experiment: Inhibitory activity assay for yeast α-glucosidase (pNPG substrate); type: biochemical
# Method: The inhibitory activity of α-glucosidase from Saccharomyces cerevisiae (Sigma-Aldrich, Tokyo, Japan) of the isolation compounds was determined using a previously reported procedure with modifications. p-Nitrophenyl α-glucopyranoside (pNPG) (Sigma-Aldrich, Tokyo, Japan) was used as a substrate. Other chemicals used were of analytical grade. […] Then, 40 µL of 3 mM pNPG solution was added, and the mixture was incubated at 37 °C for 20 min. The reaction was stopped by adding a solution of Na2CO3 (0.1 M, 200 µL), and the absorbance (at 405 nm) of the resulting solution was measured via an Epoch microplate reader (Biotech, Tokyo, Japan). All experiments were performed in three independent replicates. The inhibition of isolated compounds on α-glucosidase was calculated as follows:(2) Inhibition (%)=(1−A1/A0)×100 where A0 is the absorbance of the control, and A1 is the absorbance of the propolis samples. The IC50 values were determined as the half-maximal inhibitory concentration of the inhibitor (isolated compound) which provides 50% inhibition.
# α-glucosidase [5] = conditions: cited from earlier work
# Sequence of α-glucosidase (Saccharomyces cerevisiae, UniProt P53341) (P53341 whole entry): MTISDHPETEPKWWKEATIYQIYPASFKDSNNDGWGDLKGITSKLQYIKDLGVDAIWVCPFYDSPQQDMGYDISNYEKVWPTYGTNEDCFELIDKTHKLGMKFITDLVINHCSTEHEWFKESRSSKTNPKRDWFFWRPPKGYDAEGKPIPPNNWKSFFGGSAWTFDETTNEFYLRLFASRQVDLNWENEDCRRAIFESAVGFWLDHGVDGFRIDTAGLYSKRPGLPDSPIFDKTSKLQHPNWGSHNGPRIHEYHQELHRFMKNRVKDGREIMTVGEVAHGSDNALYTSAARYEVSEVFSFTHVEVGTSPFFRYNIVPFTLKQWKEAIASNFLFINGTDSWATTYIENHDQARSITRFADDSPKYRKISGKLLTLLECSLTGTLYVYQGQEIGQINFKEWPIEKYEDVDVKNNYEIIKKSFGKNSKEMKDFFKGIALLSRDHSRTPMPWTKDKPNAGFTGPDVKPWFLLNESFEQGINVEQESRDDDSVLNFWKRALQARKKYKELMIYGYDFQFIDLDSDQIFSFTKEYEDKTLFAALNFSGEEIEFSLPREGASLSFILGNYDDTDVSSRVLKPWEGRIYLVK
# Sequence of α-glucosidase from Saccharomyces cerevisiae (P53341 whole entry): as above
structure (smiles),measurement,setting,value
"C/C(=C\CC[C@@H](C)[C@H]1CC[C@@]2(C)[C@@H]3CC[C@H]4C(C)(C)C(=O)CC[C@@]45C[C@@]35CC[C@]12C)C(=O)O [Mangiferonic acid (4), mangiferonic acid]",Inhibition Mode,α-glucosidase [1],Mixed inhibition
same,Inhibition Mode,α-glucosidase [1]; listed as 4,mixed-type inhibition
same,Ki’,α-glucosidase [1],3.23 µM
same,DPPH IC50,[2],17.16 ± 2.98 µg/mL
same,IC50,[2],37.7 ± 6.55 µM
"C=C(CCC(C)C1CCC2(C)C3CCC4C(C)(C)C(=O)CCC45CC35CCC12C)C(C)C(=O)O (centres unmarked) [Ambonic acid (3), ambonic acid]",Inhibition Mode,α-glucosidase [1],Mixed inhibition
same,Inhibition Mode,α-glucosidase [1]; listed as 3,mixed-type inhibition
same,Ki’,α-glucosidase [1],6.42 µM
same,DPPH IC50,[2],42.45 ± 4.5 µg/mL
same,IC50,[2],90.6 ± 9.6 µM
C[C@H]1O[C@H](O[C@H]2[C@H](O)[C@@H](O)[C@@H](O[C@H]3[C@H](O)[C@@H](O)C(O)O[C@@H]3CO)O[C@@H]2CO)[C@H](O)[C@@H](O)[C@@H]1N[C@H]1C=C(CO)[C@@H](O)[C@H](O)[C@H]1O (some centres unmarked) [Acarbose],"inhibitory activity against α-glucosidase from the rat small intestine, in words",[3],very high inhibitory activity
same,IC50,[3],209 ± 0.96 µM
same,"inhibitory activity against α-glucosidase from the yeast (S. cerevisiae), in words",[4],no activity at all
"C=C(CCC(C)C1CCC2(C)C3CCC4C(C)(C)C(O)CCC45CC35CCC12C)C(C)C(=O)O (centres unmarked) [Ambolic acid (5), ambolic acid]",Inhibition Mode,α-glucosidase [1],Mixed inhibition
same,Inhibition Mode,α-glucosidase [1]; listed as 5,mixed-type inhibition
same,Ki’,α-glucosidase [1],4.58 µM
same,DPPH IC50,[2],132.30 ± 13.9 µg/mL
same,IC50,[2],281 ± 29.5 µM
Oc1cc(O)c2c(c1)O[C@H](c1ccc(O)c(O)c1)[C@H](O)C2 [(–)-Epicatechin],inhibitory value on α-glucosidase,α-glucosidase [5],around 96%
same,"inhibitory activity against α-glucosidase from the rat small intestine, in words",[3],no inhibitory activity
same,"inhibitory activity against α-glucosidase from the yeast (S. cerevisiae), in words",[4],showed inhibitory activity
C=C(CC[C@@H](C)[C@H]1CC[C@@]2(C)[C@@H]3CC[C@H]4C(C)(C)C(=O)CC[C@@]45C[C@@]35CC[C@]12C)C(C)C [24-methylenecycloartenone],IC50,"α-glucosidase [5]; isolated from Schisandra chinensis, read-out: IC50 against α-glucosidase",2360 nM
"C/C(=C\CC[C@@H](C)[C@H]1CC[C@@]2(C)[C@@H]3CC[C@H]4C(C)(C)[C@@H](O)CC[C@@]45C[C@@]35CC[C@]12C)C(=O)O [Mangiferolic acid (1), mangiferolic acid]",Inhibition Mode,α-glucosidase [1],Uncompetitive
same,Inhibition Mode,α-glucosidase [1]; listed as 1,uncompetitive inhibition
same,DPPH IC50,[2],12.38 ± 3.0 µg/mL
same,IC50,[2],27.1 ± 6.57 µM
"CC(C)=CCC[C@@H](C)[C@H]1CC[C@@]2(C)[C@@H]3CC[C@H]4C(C)(C)[C@@H](O)CC[C@@]45C[C@@]35CC[C@]12C [Cycloartenol (2), cycloartenol]",Inhibition Mode,α-glucosidase [1],Uncompetitive
same,Inhibition Mode,α-glucosidase [1]; listed as 2,uncompetitive inhibition
same,DPPH IC50,[2],120.21 ± 11.2 µg/mL
same,IC50,[2],282 ± 26.3 µM
"Cc1c(C)c2c(c(C)c1O)CCC(C)(C(=O)O)O2 (centres unmarked) [Trolox, reference compound]",Antioxidant Activity IC50,"[2]; DPPH, propolis fractions P1 and P2",6.76 ± 0.395 µg/mL
same,DPPH IC50,[2],7.17 ± 0.13 µg/mL
same,IC50,[2],28.6 ± 0.52 µM
OCC(CO)N[C@H]1C[C@](O)(CO)[C@@H](O)[C@H](O)[C@H]1O [Voglibose],"inhibitory activity against α-glucosidase from the rat small intestine, in words",[3],very high inhibitory activity
same,IC50,[3],78.6 ± 1.27 µM
